From US11541028B2, “Peptide pharmaceuticals for treatment of NASH and other disorders” (Mederis Diabetes LLC, priority 2018, dated 2023)
Square brackets hold non-standard residues; d marks the D form. Peptide text beside a SMILES is read from it. * marks the point of attachment. GlcA(β-D,1-O-dodecyl) = CCCCCCCCCCCCO[C@@H]1O[C@H](C(=O)*)[C@@H](O)[C@H](O)[C@H]1O; αMeF = C[C@](N)(Cc1ccccc1)C(=O)O; Ac4c = NC1(C(=O)O)CCC1; Aib = CC(C)(N)C(=O)O

Legend:
Glucagon R = biological target: T1, Glucagon R (Homo sapiens, UniProt P47871); assay: Cerep cellular assay, stimulation of cAMP levels, glucagon (human, cloned into CHO cells); assay type: cell-based; conditions: human receptor in CHO cells (Cerep)
T1 construct: host or cells: CHO cells
Method: (§1) Compounds were weighed precisely in an amount of about 1 mg and assayed in standard cellular assays (Cerep SA). The readout was the amount of cAMP generated in the cells treated with the test compounds, in either agonist or antagonist mode. […] The assays are described in Chicchi et al., J. Biol. Chem., 272:7765-7769 (1997) and Runge et al., Br. J. Pharmacol., 138:787-794 (2003).

GLP-1 R = biological target: T2, GLP-1 R (Mus musculus, UniProt O35659); assay: Cerep cellular assay, stimulation of cAMP levels, GLP-1 (murine cell line); assay type: cell-based; design: key: §means superagonist; n.c. means EC50 not calculable; conditions: for EC50 GLP-1 R (nM): n.c. = EC50 not calculable
T2 construct: GLP-1 (murine cell line) cellular assays
T2 sequence (O35659 22-463): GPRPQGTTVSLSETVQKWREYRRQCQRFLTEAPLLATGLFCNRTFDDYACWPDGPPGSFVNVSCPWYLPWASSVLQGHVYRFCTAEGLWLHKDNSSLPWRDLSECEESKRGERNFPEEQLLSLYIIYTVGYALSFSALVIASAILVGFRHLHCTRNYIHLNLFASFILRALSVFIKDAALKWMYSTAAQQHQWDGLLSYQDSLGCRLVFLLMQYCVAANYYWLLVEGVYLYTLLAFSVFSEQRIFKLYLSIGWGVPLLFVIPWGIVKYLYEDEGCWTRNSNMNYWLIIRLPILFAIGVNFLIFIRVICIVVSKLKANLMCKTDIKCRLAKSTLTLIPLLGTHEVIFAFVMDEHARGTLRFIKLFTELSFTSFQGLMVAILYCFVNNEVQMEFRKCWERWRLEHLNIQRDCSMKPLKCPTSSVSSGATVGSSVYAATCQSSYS
Method: as §1

human GLP-1 receptor = biological target: T3, human GLP-1 receptor (Homo sapiens, UniProt P43220); assay: DiscoveRx LeadHunter cellular assay, cAMP stimulation, GLP-1 receptor in CHO cells; assay type: cell-based; conditions: human GLP-1 receptor in CHO cells (DiscoveRx); read-out: EC50 cAMP GLP-1 R
T3 construct: host or cells: CHO cells
Method: (§4801) A further series of cellular assays was carried out with standard cellular assays (DiscoveRx, LeadHunter assays) using readout of cAMP stimulation or arrestin activation. Compounds were weighed precisely in an amount of about 1 mg and shipped to DiscoveRx for dilution and assay.

human glucagon receptor = biological target: T4, human glucagon receptor (Homo sapiens, UniProt P47871); assay: DiscoveRx LeadHunter cellular assay, cAMP stimulation, glucagon receptor in CHO cells; assay type: cell-based
T4 construct: host or cells: CHO cells
Method: as §4801

DIO C57BL/6J mice = assay: Activity in diet-induced obese (DIO) mice; assay type: in vivo
Method: Fifty diet-induced obese (DIO) C57BL/6J male mice (JAX Labs) were received at 6 wks of age. The mice were ear notched for identification and housed individually in positively ventilated polycarbonate cages with HEPA-filtered air at a density of […]. The animal room was lit entirely with artificial fluorescent lighting, with a controlled 12 hr light/dark cycle. The normal temperature and relative humidity ranges in the animal rooms were 22±4° C. and 50±15%, respectively. Filtered tap water, acidified to a pH of 2.8-3.1, and a high-fat diet (Research Diets D12492, 60 kcal %) were provided ad libitum.
Following a 2 week acclimation, the 50 mice were randomized into groups (n=10): Group 1: treated with vehicle; Group 2: low-dose EU-A994; Group 3: high-dose […]; Group 4: low-dose EU-A1024; and Group 5: high-dose EU-A1024. Mice were dosed subcutaneously on days 1 (at 0 and 7 hr), 3, 6, 9, 12, 15, 18, 21 and 24. Body weight and cage-side observations were recorded daily. Food and water intake was recorded weekly. Mice underwent NMR measurements for determination of whole-body fat and lean composition on days 1 (pre-dose) and 26. On day 26, mice were fasted overnight for an oral glucose tolerance test. Next day, the first blood sample was collected via tail nick (t=0). Mice were then administered a bolus of 1.0 g/kg glucose. Blood samples were obtained via tail nick at 0, 15, 30, 60, 90 and 120 min after glucose dosing, and plasma glucose was immediately determined using a glucometer.
Mice were sacrificed on day 28. Terminal blood was processed to serum/plasma, and aliquots were sent for analysis of glucose, insulin and lipid profile. Body composition was determined by NMR.

[1] = incubation in human plasma at 30° C, in 4 hours
[2] = days 1 (pre-dose) and 26 (FIG. 11)
[3] = sc on days 1 (0 and 7 hr), 3, 6, 9, 12, 15, 18, 21 and 24

T3 sequence (P43220 24-463): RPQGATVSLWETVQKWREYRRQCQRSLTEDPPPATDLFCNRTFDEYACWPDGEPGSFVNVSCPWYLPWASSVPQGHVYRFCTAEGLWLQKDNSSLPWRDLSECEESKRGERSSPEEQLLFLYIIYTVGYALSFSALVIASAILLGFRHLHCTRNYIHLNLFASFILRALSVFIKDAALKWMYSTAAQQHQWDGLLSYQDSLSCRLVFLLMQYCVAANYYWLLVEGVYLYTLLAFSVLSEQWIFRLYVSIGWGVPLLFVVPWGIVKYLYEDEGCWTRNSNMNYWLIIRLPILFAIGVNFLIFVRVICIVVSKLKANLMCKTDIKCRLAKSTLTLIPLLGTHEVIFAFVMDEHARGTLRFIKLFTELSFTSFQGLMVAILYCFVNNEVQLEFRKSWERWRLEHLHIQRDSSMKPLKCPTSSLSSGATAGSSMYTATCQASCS
T1 sequence (P47871 26-477): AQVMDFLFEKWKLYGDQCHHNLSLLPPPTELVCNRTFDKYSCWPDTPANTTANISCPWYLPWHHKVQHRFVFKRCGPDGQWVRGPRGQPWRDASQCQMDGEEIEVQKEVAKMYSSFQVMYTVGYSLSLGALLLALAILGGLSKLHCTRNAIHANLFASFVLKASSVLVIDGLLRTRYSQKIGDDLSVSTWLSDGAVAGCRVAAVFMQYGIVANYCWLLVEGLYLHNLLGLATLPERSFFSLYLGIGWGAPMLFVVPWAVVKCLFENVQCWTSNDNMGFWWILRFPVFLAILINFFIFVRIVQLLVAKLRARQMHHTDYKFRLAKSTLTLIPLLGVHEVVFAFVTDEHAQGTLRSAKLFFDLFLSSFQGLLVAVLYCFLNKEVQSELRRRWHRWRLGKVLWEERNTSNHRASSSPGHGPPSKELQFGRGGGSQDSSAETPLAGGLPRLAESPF
T4 sequence (P47871 26-477): as above

CCCCCCCCCCCCO[C@@H]1O[C@H](C(=O)NCCCC[C@H](NC(=O)C(C)(C)NC(=O)[C@H](CC(=O)O)NC(=O)[C@H](CC(C)C)NC(=O)[C@H](Cc2ccc(O)cc2)NC(=O)[C@H](CCCCN)NC(=O)[C@H](CO)NC(=O)[C@H](Cc2ccc(O)cc2)NC(=O)[C@H](CC(=O)O)NC(=O)[C@H](CO)NC(=O)[C@@H](NC(=O)[C@](C)(Cc2ccccc2)NC(=O)[C@@H](NC(=O)CNC(=O)[C@H](CCC(N)=O)NC(=O)C(C)(C)NC(=O)[C@@H](N)Cc2c[nH]cn2)[C@@H](C)O)[C@@H](C)O)C(N)=O)[C@@H](O)[C@H](O)[C@H]1O [EU-A391] (H-H[Aib]QGT[αMeF]TSDYSKYLD[Aib]K(GlcA(β-D,1-O-dodecyl))-NH2; N-terminus assumed)
GCGR cellular response (Glucagon R): did not change

CCCCCCCCCCCCO[C@@H]1O[C@H](C(=O)NCCCC[C@H](NC(=O)[C@H](CC(=O)O)NC(=O)[C@H](CC(C)C)NC(=O)[C@H](Cc2ccc(O)cc2)NC(=O)[C@H](CCCCN)NC(=O)[C@H](CO)NC(=O)[C@H](Cc2ccc(O)cc2)NC(=O)[C@H](CC(=O)O)NC(=O)[C@H](CO)NC(=O)[C@@H](NC(=O)[C@H](Cc2ccccc2)NC(=O)[C@@H](NC(=O)CNC(=O)[C@H](CCC(N)=O)NC(=O)C(C)(C)NC(=O)[C@@H](N)Cc2c[nH]cn2)[C@@H](C)O)[C@@H](C)O)C(=O)NC2(C(N)=O)CCC2)[C@@H](O)[C@H](O)[C@H]1O [EU-A522] (H-H[Aib]QGTFTSDYSKYLDK(GlcA(β-D,1-O-dodecyl))[Ac4c]-NH2; N-terminus assumed)
EC50 GLP-1 R (nM) (GLP-1 R): n.c.

CCCCCCCCCCCCO[C@@H]1O[C@H](C(=O)NCCCC[C@H](NC(=O)[C@H](CO)NC(=O)[C@H](CC(=O)O)NC(=O)[C@H](CC(C)C)NC(=O)[C@H](Cc2ccc(O)cc2)NC(=O)[C@H](CCCCN)NC(=O)[C@H](CO)NC(=O)[C@H](Cc2ccc(O)cc2)NC(=O)[C@H](CC(=O)O)NC(=O)[C@H](CO)NC(=O)[C@@H](NC(=O)[C@H](Cc2ccccc2)NC(=O)[C@@H](NC(=O)CNC(=O)[C@H](CCC(N)=O)NC(=O)C(C)(C)NC(=O)[C@@H](N)Cc2c[nH]cn2)[C@@H](C)O)[C@@H](C)O)C(=O)NC(C)(C)C(N)=O)[C@@H](O)[C@H](O)[C@H]1O [EU-A527]
EC50 GLP-1 R (nM) (GLP-1 R): n.c.

CCCCCCCCCCCCO[C@@H]1O[C@H](C(=O)NCCCC[C@H](NC(=O)[C@H](CO)NC(=O)[C@H](CC(=O)O)NC(=O)[C@H](CC(C)C)NC(=O)[C@H](Cc2ccc(O)cc2)NC(=O)[C@H](CCCCN)NC(=O)[C@H](CO)NC(=O)[C@H](Cc2ccc(O)cc2)NC(=O)[C@H](CC(=O)O)NC(=O)[C@H](CO)NC(=O)[C@@H](NC(=O)[C@H](Cc2ccccc2)NC(=O)[C@@H](NC(=O)CNC(=O)[C@H](CCC(N)=O)NC(=O)C(C)(C)NC(=O)[C@@H](N)Cc2c[nH]cn2)[C@@H](C)O)[C@@H](C)O)C(=O)N[C@@H](CCCNC(=N)N)C(=O)NC(C)(C)C(N)=O)[C@@H](O)[C@H](O)[C@H]1O [EU-A529]
EC50 GLP-1 R (nM) (GLP-1 R): n.c.

CCCCCCCCCCCCCCO[C@@H]1O[C@H](C(=O)NCCCC[C@H](NC(=O)[C@H](CCCNC(=N)N)NC(=O)[C@H](CO)NC(=O)[C@H](CC(=O)O)NC(=O)[C@H](CC(C)C)NC(=O)[C@H](Cc2ccc(O)cc2)NC(=O)[C@H](CCCCN)NC(=O)[C@H](CO)NC(=O)[C@H](Cc2ccc(O)cc2)NC(=O)[C@H](CC(=O)O)NC(=O)[C@H](CO)NC(=O)[C@@H](NC(=O)[C@H](Cc2ccccc2)NC(=O)[C@@H](NC(=O)CNC(=O)[C@H](CCC(N)=O)NC(=O)C(C)(C)NC(=O)[C@@H](N)Cc2c[nH]cn2)[C@@H](C)O)[C@@H](C)O)C(=O)NC(C)(C)C(N)=O)[C@@H](O)[C@H](O)[C@H]1O [EU-A535]
efficacy class at GLP-1 R (mark in EC50 cell) (GLP-1 R): §4800

CCCCCCCCCCCCCCO[C@@H]1O[C@H](C(=O)NCCCC[C@@H]2NC(=O)[C@H](CCC(N)=O)NC(=O)[C@@H](NC(=O)[C@H](CC(=O)O)NC(=O)[C@H](CC(C)C)NC(=O)[C@H](Cc3ccc(O)cc3)NC(=O)[C@H](CCCCN)NC(=O)[C@H](CO)NC(=O)[C@H](Cc3ccc(O)cc3)NC(=O)[C@H](CC(=O)O)NC(=O)[C@H](CO)NC(=O)[C@@H](NC(=O)[C@H](Cc3ccccc3)NC(=O)[C@@H](NC(=O)CNC(=O)[C@H](CCC(N)=O)NC(=O)C(C)(C)NC(=O)[C@@H](N)Cc3c[nH]cn3)[C@@H](C)O)[C@@H](C)O)CCC(=O)NCCCC[C@@H](C(N)=O)NC(=O)[C@H](C)NC2=O)[C@@H](O)[C@H](O)[C@H]1O [EU-A540]
EC50 GLP-1 R (nM) (GLP-1 R): n.c.

CCCCCCCCCCCCCCO[C@@H]1O[C@H](CO[C@H]2O[C@H](C(=O)NCCCC[C@H](NC(=O)[C@@H](NC(=O)[C@H](Cc3ccccc3)NC(=O)[C@H](CCC(=O)O)NC(=O)[C@@H]3CCCCNC(=O)CC[C@H](NC(=O)[C@H](CC(=O)O)NC(=O)[C@H](CC(C)C)NC(=O)[C@H](Cc4ccc(O)cc4)NC(=O)[C@H](CCCCN)NC(=O)[C@H](CO)NC(=O)[C@H](Cc4ccc(O)cc4)NC(=O)[C@H](CC(=O)O)NC(=O)[C@H](CO)NC(=O)[C@@H](NC(=O)[C@H](Cc4ccccc4)NC(=O)[C@@H](NC(=O)CNC(=O)[C@H](CCC(N)=O)NC(=O)C(C)(C)NC(=O)[C@@H](N)Cc4c[nH]cn4)[C@@H](C)O)[C@@H](C)O)C(=O)N[C@@H](CCC(N)=O)C(=O)N[C@@H](C)C(=O)N[C@@H](C)C(=O)N3)[C@@H](C)CC)C(=O)N[C@@H](Cc3c[nH]c4ccccc34)C(=O)N[C@@H](CC(C)C)C(=O)N[C@@H](CC(C)C)C(=O)N[C@@H](CCC(N)=O)C(=O)N[C@H](C(N)=O)[C@@H](C)O)[C@H](O)[C@H](O)[C@H]2O)[C@@H](O)[C@H](O)[C@H]1O [EU-A1024]
EC50 (human GLP-1 receptor): 0.005 nM | EC50 (human glucagon receptor): 0.035 nM | fat mass (NMR) (DIO C57BL/6J mice; [2]): reduced fat mass | lean mass (NMR) (DIO C57BL/6J mice; [2]): little effect on lean mass | basal insulin secretion (DIO C57BL/6J mice; [3]): reduced basal insulin secretion | glucose excursion in the oral glucose tolerance test (OGTT) (DIO C57BL/6J mice; [3]): reduced glucose excursion | glucose-dependent insulin secretion (DIO C57BL/6J mice; [3]): increased glucose-dependent insulin secretion | weight gain (DIO C57BL/6J mice; sc on days 1 (0 and 7 hr), 3, 6, 9, 12, 15, 18, 21 and 24 (FIG. 10)): reduced weight gain

CC[C@H](C)[C@H](NC(=O)[C@H](Cc1ccccc1)NC(=O)[C@H](CCC(=O)O)NC(=O)[C@H](CCCCN)NC(=O)[C@H](C)NC(=O)[C@H](C)NC(=O)[C@H](CCC(N)=O)NC(=O)CNC(=O)[C@H](CCC(=O)O)NC(=O)[C@H](CC(C)C)NC(=O)[C@H](Cc1ccc(O)cc1)NC(=O)[C@H](CO)NC(=O)[C@H](CO)NC(=O)[C@@H](NC(=O)[C@H](CC(=O)O)NC(=O)[C@H](CO)NC(=O)[C@@H](NC(=O)[C@H](Cc1ccccc1)NC(=O)[C@@H](NC(=O)CNC(=O)[C@H](CCC(=O)O)NC(=O)[C@H](C)NC(=O)[C@@H](N)Cc1c[nH]cn1)[C@@H](C)O)[C@@H](C)O)C(C)C)C(=O)N[C@@H](C)C(=O)N[C@@H](Cc1c[nH]c2ccccc12)C(=O)N[C@@H](CC(C)C)C(=O)N[C@H](C(=O)N[C@@H](CCCCN)C(=O)NCC(=O)N[C@@H](CCCNC(=N)N)C(N)=O)C(C)C [GLP-1(7-36)]
cleavage of compound in human plasma (compound signal versus time) [1]: essentially complete cleavage
